These results are taken from patent US10844071B2, “Substituted [1,2,3]triazolo[4,5-d]pyrimidines that lower stress-induced p-tau” (BUCK INSTITUTE FOR RESEARCH ON AGING, priority 2015, dated 2020).

Series [1] concerns the target T1, CRF1 (Homo sapiens, UniProt P34998).
T1 sequence (P34998 24-415): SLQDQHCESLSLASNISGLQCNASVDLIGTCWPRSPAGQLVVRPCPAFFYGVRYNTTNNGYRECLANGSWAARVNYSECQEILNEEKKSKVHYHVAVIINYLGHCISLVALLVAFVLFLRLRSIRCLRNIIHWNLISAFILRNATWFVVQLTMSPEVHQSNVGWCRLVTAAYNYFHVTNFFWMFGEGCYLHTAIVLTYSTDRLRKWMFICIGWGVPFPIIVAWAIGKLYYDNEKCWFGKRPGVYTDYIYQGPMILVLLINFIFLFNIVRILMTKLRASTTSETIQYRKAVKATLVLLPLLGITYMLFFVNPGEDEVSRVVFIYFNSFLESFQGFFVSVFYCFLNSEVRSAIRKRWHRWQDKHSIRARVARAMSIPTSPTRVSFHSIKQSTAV
In words: CRF1 binding (Ki). Conditions: Tertiary; read-out: CRF1 Ki.

Series [2] is described as follows: In vivo pharmacokinetics, brain and plasma levels. Also on record: species or system mouse.
Series [3] in a line: Solubility in DMSO. The class given is physicochemical.
Series [4] relates to SH-SY5Y cells. In words: Primary screen in SH-SY5Y cells (tau, p-tau). In kind it is cell-based. The following applies: for Tau % / p-Tau (%): Primary (SH-SY5Y); for p-tau / tau: SH-SY5Y cells, no CRF. On the procedure:
(§1) As described below, in vitro studies were performed using SHSY-5Y cells. These cells are a useful neurological model that differentiate into cells with morphological and biochemical characteristics of mature neurons including mature isoforms of tau.
However, J04 did lower p-tau to the same level as J03 and significant may not have been reached due to low N #.

A short description of series [5]: PAMPA. In kind it is in vitro ADME. Conditions: Tertiary. Background: The PAMPA barrier holds no transporters, so it reflects passive diffusion.
The subject of series [6] is SH-SY5Y cells. In words: Secondary screen in SH-SY5Y cells with CRF stimulation (tau, p-tau, sAPPα). The class given is cell-based. How it is done:
as §1
In an initial study, SHSY-5Y cells were cultured without serum to induce differentiation and increase tau expression. […] The increases were proportional and both were about 50%. J03 (FIG. 4A) reduced the CRF-induced tau increases more than the p-tau increases. The increase in p-tau with CRF was expected, but the increase in tau less predictable as CRF reduces neuronal differentiation (see Chen et al. (2004) Proc. Natl. Acad. Sci. USA, 101(44): 15782-15787), however, it can increase tau accumulation.

In series [7] the test system is J20 mice. Nature of the series: J17 pilot study in J20 mice (oral, 28 days). The class given is in vivo, mouse. How it is done:
Animal experiments were performed using J20 mice. The J20 mouse is a model of for Alzheimer's disease. This model overexpresses human APP with two mutations linked to familial Alzheimer's disease (the APP KM670/671NL (Swedish) and […] (Indiana) mutations).
In a J17 pilot study (#1 pilot study) male and female J20 mice were housed singly and treated with J17 at 10 mkd by oral delivery for 28 days. […]

The mark [8] stands for this setting: organic solvent or mixture, read-out: Solubility.
[9] abbreviates: Secondary (SH-Sy5Y, CRF stimulation).
Setting [10] is: SH-SY5Y cells, CRF-induced increase.
Where [11] appears, read: subcutaneous injection of 10 mg/kg.

In brackets after ≈: the same amount, converted by molar mass. Where a name gives a salt, the structure may show the parent alone. Read-outs that look alike come from different tables or passages of the source.

For the compound `CCC(COC)n1nnc2c(Nc3ccc(OC)cc3C)nc(C)nc21` (stereo not shown) [Compound J04], the Ki (in general, the equilibrium dissociation constant of an inhibitor or competing ligand from its target) in series [1] came out at 15 nM. Further, the brain levels in series [2] (after SQ injection or oral delivery) is 55 ng/g. Also, the solubility (usually how much of the substance goes into solution per volume) in series [3] (setting [8]) was roughly 10 mM (≈ 3560 µg/mL). Also, in series [4], the Tau % entry is given as “Unchanged”; the p-tau entry was “did lower p-tau, although not significantly”; the tau result is on record as “did not lower”. The compound also displayed a PAMPA in series [5] of 0.44.

Regarding `CCC(COC)n1nnc2c(Nc3ccc(C)cc3C)nc(C)nc21` (stereo not shown) [Compound J05], the solubility in series [3] (setting [8]) is roughly 10 mM (≈ 3400 µg/mL). Moreover, the PAMPA in series [5] stood at 0.99.

`CCC(COC)n1nnc2c(Nc3ccc(F)cc3C)nc(C)nc21` (stereo not shown) [Compound J06]: the “p-Tau (%)” value in series [6] (setting [9]) is recorded as “Unchanged”. Besides, the Ki in series [1] was greater than 1000 nM. In addition, the solubility in series [3] (setting [8]) is roughly 10 mM (≈ 3440 µg/mL). The Tau % entry in series [4] is recorded as “Unchanged”.

Consider `CCC(COC)n1nnc2c(Nc3ccc(F)cc3F)nc(C)nc21` (stereo not shown) [Compound J07], for which the inhibition constant (Ki) in series [1] is greater than 1000 nM. Besides, the solubility in series [3] (setting [8]) was roughly 10 mM (≈ 3480 µg/mL). This compound displayed a PAMPA in series [5] of 0.72.

Take `CCC(COC)n1nnc2c(Nc3ccc(Cl)cc3C)nc(C)nc21` (stereo not shown) [Compound J08]: the “sAPPα (%)” value in series [6] (setting [9]) is on record as “Unchanged”. Also, the inhibitory constant (Ki) in series [1] amounted to 15 nM. Further, the solubility in series [3] (setting [8]) was roughly 10 mM (≈ 3610 µg/mL). In series [4], the Tau % result is on record as “Unchanged”. This compound also returned a PAMPA in series [5] of 1.27.

With `CCC(COC)n1nnc2c(Nc3ccc(OC)cc3OC)nc(C)nc21` (stereo not shown) [Compound J09], in series [3] (setting [8]), the solubility was roughly 10 mM (≈ 3720 µg/mL). The Tau % result in series [4] is on record as “Unchanged”.

For the compound `CCC(COC)n1nnc2c(N3CCCC3)nc(C)nc21` (stereo not shown) [Compound J10], the solubility in series [3] (setting [8]) was roughly 10 mM (≈ 2900 µg/mL). Further, in series [4], the Tau % result was “Unchanged” and the “p-Tau (%)” value is given as “Unchanged”.

`CCC(COC)n1nnc2c(N(C)C3CC3)nc(C)nc21` (stereo not shown) [Compound J11]: the “sAPPα (%)” value in series [6] (setting [9]) was “Unchanged”. For the same compound, the Ki in series [1] is greater than 1000 nM. Moreover, the solubility in series [3] (setting [8]) was roughly 10 mM (≈ 2900 µg/mL). The Tau % entry in series [4] is recorded as “Unchanged”. In addition, the PAMPA in series [5] amounted to 0.94.

With `CCC(COC)n1nnc2c(N3CC(C)CC(C)C3)nc(C)nc21` (stereo not shown) [Compound J12], in series [6] (setting [9]), the “sAPPα (%)” value is reported as “Unchanged”. Besides, the inhibitory constant (Ki) in series [1] was greater than 1000 nM. In addition, the solubility in series [3] (setting [8]) was roughly 10 mM (≈ 3320 µg/mL). The PAMPA in series [5] was 2.39.

For the compound `CCC(COC)n1nnc2c(N(C)c3c(C)cc(C)cc3C)nc(C)nc21` (stereo not shown) [Compound J14], the inhibition constant (Ki) in series [1] amounted to 25 nM. Also, in series [3] (setting [8]), the solubility is roughly 10 mM (≈ 3680 µg/mL). Also, the Tau % entry in series [4] is on record as “Unchanged”. Further, the PAMPA in series [5] was found to be 1.11.

On to `CCC(COC)n1nnc2c(N(C)C3CCOCC3)nc(C)nc21` (stereo not shown) [Compound J15], for which, in series [6] (setting [9]), the Tau % result was “↓>30%”, the “p-Tau (%)” value is recorded as “↓>30%” and the “sAPPα (%)” value is greater than 10%. In series [1], the inhibition constant Ki was greater than 1000 nM. The solubility in series [3] (setting [8]) is roughly 10 mM (≈ 3340 µg/mL). In series [4], the Tau % entry was “Unchanged” and the “p-Tau (%)” value was “↓>10%”. The same compound returned a PAMPA in series [5] of 0.34.

Turning to `CCC(COC)Nc1nc(C)nc2c1nnn2-c1ccc(OC)cc1C` (stereo not shown) [Compound J17], in series [6] (setting [10]), the “p-tau after CRF exposure” value is listed as “decreased” and the “tau after CRF exposure” value is “decreased”. For the same compound, the “sAPPα after CRF exposure” value in series [6] (SH-SY5Y cells, FIG. 19) is given as “same as control”. In addition, the “sAPPα (%)” value in series [6] (setting [9]) is given as “Unchanged”. Also, the “sAPPα with increasing concentrations of CRF” value in series [6] (without CRF and at 50 nM CRF, FIG. 20) is given as “lack of increase”. Moreover, the Ki in series [1] amounted to 30 nM. Also, in series [2] (oral delivery, 10 mg/kg), the brain levels is listed as roughly 50 ng/g and the “plasma levels relative to brain levels” value was roughly 10 fold. Besides, in series [2] (setting [11]), the brain levels is listed as roughly 400 ng/g and the plasma levels was roughly 4000 ng/m. Moreover, in series [7] (all mice), the novel object preference entry is “increase with J17 was significant”. Further, the sAPPα entry in series [7] (both genders) is reported as “increase with J03 but not J17”. Moreover, in series [7] (males), the p-tau/tau ratio entry is “lower still and just missed significance”; the sAPPα/sAPPβ ratio result is “greater”. Moreover, the “activity (total interactions)” value in series [7] (not significant) is “lowered”. Also, the sAPPβ result in series [7] (one high outlier eliminated) is given as “decrease”. Further, in series [3] (setting [8]), the solubility was roughly 10 mM (≈ 3560 µg/mL). Moreover, in series [4], the p-tau result was “significantly lower” and the tau entry is “significantly lower”. Moreover, in series [5], the PAMPA amounted to 0.64.

In the case of `CCC(COC)Nc1nc(C)nc2c1nnn2-c1ccc(Cl)cc1C` (stereo not shown) [Compound J19, 3-(4-Chloro-2-methylphenyl)-N-(1-methoxybutan-2-yl)-5-methyl-3H-[1,2,3]triazolo[4,5-d]pyrimidin-7-amine], in series [6] (50 and 100 nM CRF, FIG. 28 panel C), the p-tau/tau ratios result is “highly significantly decreased”. In addition, in series [6] (FIG. 28 panel D, significance for J03 at 100 nM CRF), the sAPPα entry is given as “trend for sAPPα to be higher”. For the same compound, the “sAPPα (%)” value in series [6] (setting [9]) is “Unchanged”. Further, the tau entry is recorded as “trend to decrease” in series [6] (absence of CRF and presence of 100 nM CRF, FIG. 28 panel A); “decreased” in series [4]. Also, the p-tau entry in series [6] (presence and absence of CRF, FIG. 28 panel B) is “significantly reduced”; in series [4], “decreased”. The “brain levels at the peak” value in series [2] (SQ injection at 10 mkd) is given as roughly 190 ng/g. Moreover, the “time of peak brain level after injection” value in series [2] (SQ injection at 10 mkd) came out at 4 h. In series [2] (oral delivery, detectable from 1 to 6 hours), the “brain levels with oral delivery compared to SQ” value is recorded as “much lower”. Moreover, the solubility in series [3] (setting [8]) is roughly 10 mM (≈ 3610 µg/mL). For the same compound, the p-tau/tau ratio result in series [4] (FIG. 29) was “unchanged”. Also, the PAMPA in series [5] stood at 0.75.

Turning to `CCC(COC)Nc1nc(C)nc2c1nnn2-c1ccc(OC)cc1C` (stereo not shown) [J17 HCl], the solubility result in series [3] is “≈10 mM”. Further, in series [4], the Tau % result is on record as “Unchanged” and the “p-Tau (%)” value was “Unchanged”.

Turning to `CCC(COC)N(C)c1nc(C)nc2c1nnn2-c1ccc(OC)cc1C` (stereo not shown) [J20 HCl], the solubility in series [3] (setting [8]) is roughly 10 mM. Further, the Tau % entry in series [4] is on record as “Unchanged”.
